According to paper PMC8342458, “GluN2A and GluN2B NMDA receptors use distinct allosteric routes” (Nature Communications, 2021):
Values joined by “and” are separate entries in the source; they are usually repeats but may differ in a detail not shown here. Identical values can stand only once. Like-named read-outs stand apart in the source and are kept apart here.

Legend:
[1] = biological target: T1, GluN1-N512C-L777C/GluN2B-E517C-L781C receptors (UniProt P35439+Q01097, E517C/L777C/L781C/N521C); test: TEVC recordings in Xenopus oocytes, zinc and ifenprodil inhibition dose-response; type: cell-based, rat (GluN1), mouse (GluN2B)
T1 construct: For full-length multimeric membrane-embedded receptors studied in cellulo, as done in the present work; expressed in transfected cells; host or cells: Xenopus laevis oocytes
Protocol: (§1) The pcDNA3-based expression plasmids for rat GluN1-1a (named GluN1 herein), rat GluN2A, and mouse GluN2B (also known as ε2) subunits, Pfu-based site-directed mutagenesis strategy, and sequencing procedure have been described previously[68],[69]. Incorporation of the unnatural amino acids (UAAs) AzF and BzF into NMDARs was performed using the genetic code expansion methodology as previously described[52],[53],[83]. The plasmid pSVB.Yam carrying the gene encoding the amber suppressor tRNA derived from B. stearothermophilus Tyr-tRNACUA, while the aminoacyl-tRNA synthetases (aaRS) construction for AzF and BzF derived from E. coli TyrRS[84],[85].
(§2) Recombinant NMDARs were expressed in Xenopus laevis oocytes after nuclear injection of 36 nl of a mixture of cDNAs (at 10–30 ng/μl) encoding various GluN1 and GluN2 subunits (ratio 1:1). Oocytes were prepared, injected, incubated, and voltage-clamped as described previously. For UAA incorporation, oocytes were co-injected with 36 nl of a cDNA mixture encoding for of GluN1, GluN2, Yam, and aaRS as follows, unless otherwise indicated in the text: GluN1-K178amber (120 ng/μl), GluN2A (80 ng/µl) or GluN2B (120 ng/μl), Yam (10 ng/μl), AzF-RS (5 ng/μl). After injection, oocytes were incubated at 19 °C in a Barth solution containing (in mM) 88 NaCl, 1 KCl, 0.33 Ca(NO3)2, 0.41 CaCl2, 0.82 MgSO4, 2.4 NaHCO3, 10 HEPES (pH adjusted to 7.6 with NaOH) supplemented with gentamicin ([…]) and the NMDAR glutamate binding site competitive antagonist D-APV (50 μM). AzF and BzF were added to the incubation medium at final concentrations of 1 mM and 2 mM, respectively.
(§3) For all experiments, except those on pH and spermine sensitivity, the standard external solution contained (in mM): 100 NaCl, 0.3 BaCl2, and 5 HEPES (pH adjusted to 7.3 with KOH). […] For the pH and spermine sensitivity experiments, an external solution enriched in HEPES was used to insure proper pH buffering. Unless otherwise mentioned, NMDAR-mediated currents were induced by simultaneously applications of saturating concentrations of glutamate and glycine (100 μM each). Glutamate and glycine dose-response curves (DRC) were performed in the presence of 100 µM glycine and 100 µM glutamate, respectively. Recordings were performed at a holding potential of −60 mV and at room temperature. Data were collected and analyzed using Clampex 10.5 and Clampfit 10.5 (Molecular Devices), respectively, and fitted using KaleidaGraph 4.0 (Synergy software).
(§4) EC50 and nH were fitted as free parameters. […] For proton DRC, corrections for small shifts in the reference potential of bath electrodes and analysis of the data were performed as previously described. Spermine experiments were performed and analyzed as previously described. In brief, spermine sensitivity was assessed at pH 6.5 and at a holding potential of −30 mV to maximize the spermine induced potentiation. […] EC50, a and nH were set as free parameters. MK-801 is an NMDAR open channel blocker with slow reversibility and, consequently, the rate at which MK-801 inhibits NMDAR responses depends on the level of channel activity, that is, channel open probability (Po). Based on this principle, MK-801 is classically used to estimate the level of NMDAR channel activity in macroscopic whole-cell recordings[36],[47],[56],[86],[87]. Note, however, that MK- 801 inhibition kinetics can index relative, not absolute, Po. MK-801 solutions (10 nM for GluN2A-containing receptors and 50 nM for GluN2B-containing receptors) were prepared by dilution of a stock solution (50 mM) into the agonist containing solutions. MK-801 time constants of inhibition (τon) were obtained by fitting currents with a single-exponential component to a time window corresponding to 10–90% of maximum inhibition. On-rate (kon) constants were then calculated assuming a pseudo first-order reaction scheme: kon = 1 / ([MK-801]*τon).

[2] = biological target: T2, GluN1/GluN2B-N218C receptors (UniProt P35439+Q01097, N218C); test: as above; type: cell-based, rat (GluN1), mouse (GluN2B)
T2 construct: For full-length multimeric membrane-embedded receptors studied in cellulo, as done in the present work; expressed in transfected cells; host or cells: Xenopus laevis oocytes
Protocol: as §1, §2, §3, §4

[3] = biological target: T3, wild-type (wt) GluN1/GluN2B receptors (UniProt P35439+Q01097); test: TEVC recordings in Xenopus oocytes, allosteric modulator sensitivity; type: cell-based, rat (GluN1), mouse (GluN2B)
T3 construct: For full-length multimeric membrane-embedded receptors studied in cellulo, as done in the present work; expressed in transfected cells; host or cells: Xenopus laevis oocytes (nuclear cDNA injection, pcDNA3 plasmids)
T3 sequence (Q01097 27-1482, other chains not shown): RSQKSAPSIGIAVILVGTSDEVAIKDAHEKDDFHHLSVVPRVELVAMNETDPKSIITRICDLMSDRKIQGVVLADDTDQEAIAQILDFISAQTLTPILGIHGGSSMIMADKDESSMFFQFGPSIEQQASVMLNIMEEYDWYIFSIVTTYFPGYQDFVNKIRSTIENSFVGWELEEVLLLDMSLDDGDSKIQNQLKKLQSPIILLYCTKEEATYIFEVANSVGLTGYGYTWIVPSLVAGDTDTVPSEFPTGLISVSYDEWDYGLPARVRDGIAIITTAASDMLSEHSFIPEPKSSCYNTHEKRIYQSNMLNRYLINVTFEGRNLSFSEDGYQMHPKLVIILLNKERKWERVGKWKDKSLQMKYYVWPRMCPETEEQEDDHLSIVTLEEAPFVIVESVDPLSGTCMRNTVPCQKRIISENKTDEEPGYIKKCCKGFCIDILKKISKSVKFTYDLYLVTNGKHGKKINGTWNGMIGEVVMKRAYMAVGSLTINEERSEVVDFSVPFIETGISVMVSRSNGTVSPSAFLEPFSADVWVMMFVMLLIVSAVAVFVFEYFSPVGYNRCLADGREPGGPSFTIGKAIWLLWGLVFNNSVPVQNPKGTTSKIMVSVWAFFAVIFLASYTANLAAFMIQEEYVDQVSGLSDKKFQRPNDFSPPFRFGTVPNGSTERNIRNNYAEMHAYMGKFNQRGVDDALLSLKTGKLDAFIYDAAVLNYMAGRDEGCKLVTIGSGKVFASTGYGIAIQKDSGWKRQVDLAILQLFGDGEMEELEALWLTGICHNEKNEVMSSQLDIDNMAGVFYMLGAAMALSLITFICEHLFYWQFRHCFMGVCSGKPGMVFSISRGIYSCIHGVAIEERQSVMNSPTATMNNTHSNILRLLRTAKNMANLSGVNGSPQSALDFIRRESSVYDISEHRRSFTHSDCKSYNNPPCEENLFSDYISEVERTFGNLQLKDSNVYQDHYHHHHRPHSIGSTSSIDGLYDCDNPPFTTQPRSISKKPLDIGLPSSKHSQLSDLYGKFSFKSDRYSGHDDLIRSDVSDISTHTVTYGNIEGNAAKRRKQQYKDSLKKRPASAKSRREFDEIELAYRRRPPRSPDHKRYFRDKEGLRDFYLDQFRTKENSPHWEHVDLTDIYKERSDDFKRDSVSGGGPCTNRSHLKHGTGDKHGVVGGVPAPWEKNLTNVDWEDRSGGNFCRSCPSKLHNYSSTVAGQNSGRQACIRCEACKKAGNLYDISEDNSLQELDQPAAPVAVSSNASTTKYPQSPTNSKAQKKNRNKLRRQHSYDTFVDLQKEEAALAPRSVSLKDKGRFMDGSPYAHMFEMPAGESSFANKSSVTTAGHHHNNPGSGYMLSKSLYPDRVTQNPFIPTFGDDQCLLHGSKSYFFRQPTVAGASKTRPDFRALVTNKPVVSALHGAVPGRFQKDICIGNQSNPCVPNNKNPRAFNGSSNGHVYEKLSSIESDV
Protocol: as §1, §2, §3, §4

[4] = biological target: T4, GluN1-K178AzF/GluN2B receptors (UniProt P35439+Q01097, K178F); test: TEVC recordings in Xenopus oocytes, modulator sensitivity before and after UV photocrosslinking; type: cell-based, rat (GluN1), mouse (GluN2B); details: for Isper/Io 20 μM: 20 μM spermine; for Isper/Io 20 μM / Isper/Io 200 μM / Isper/Io 1000 μM / spermine maximal potentiation / spermine nH / EC50: pH 6.5, -30 mV; for Isper/Io 200 μM: 200 μM spermine; for Isper/Io 1000 μM: 1000 μM spermine; for EC50: read-out: spermine EC50
T4 construct: For full-length multimeric membrane-embedded receptors studied in cellulo, as done in the present work; expressed in transfected cells; host or cells: Xenopus laevis oocytes, co-injected with amber suppressor tRNA (Yam) and AzF-RS
T4 sequence (Q01097 27-1482, other chains not shown): as above
Protocol: as §1, §2, §3, §4

[5] = biological target: T5, GluN1-K178AzF/GluN2A receptors (Rattus norvegicus, UniProt P35439+Q00959, K178F); test: as above; type: cell-based
T5 construct: For full-length multimeric membrane-embedded receptors studied in cellulo, as done in the present work; expressed in transfected cells; host or cells: Xenopus laevis oocytes, co-injected with amber suppressor tRNA (Yam) and AzF-RS
T5 sequence (Q00959 23-1464, other chains not shown): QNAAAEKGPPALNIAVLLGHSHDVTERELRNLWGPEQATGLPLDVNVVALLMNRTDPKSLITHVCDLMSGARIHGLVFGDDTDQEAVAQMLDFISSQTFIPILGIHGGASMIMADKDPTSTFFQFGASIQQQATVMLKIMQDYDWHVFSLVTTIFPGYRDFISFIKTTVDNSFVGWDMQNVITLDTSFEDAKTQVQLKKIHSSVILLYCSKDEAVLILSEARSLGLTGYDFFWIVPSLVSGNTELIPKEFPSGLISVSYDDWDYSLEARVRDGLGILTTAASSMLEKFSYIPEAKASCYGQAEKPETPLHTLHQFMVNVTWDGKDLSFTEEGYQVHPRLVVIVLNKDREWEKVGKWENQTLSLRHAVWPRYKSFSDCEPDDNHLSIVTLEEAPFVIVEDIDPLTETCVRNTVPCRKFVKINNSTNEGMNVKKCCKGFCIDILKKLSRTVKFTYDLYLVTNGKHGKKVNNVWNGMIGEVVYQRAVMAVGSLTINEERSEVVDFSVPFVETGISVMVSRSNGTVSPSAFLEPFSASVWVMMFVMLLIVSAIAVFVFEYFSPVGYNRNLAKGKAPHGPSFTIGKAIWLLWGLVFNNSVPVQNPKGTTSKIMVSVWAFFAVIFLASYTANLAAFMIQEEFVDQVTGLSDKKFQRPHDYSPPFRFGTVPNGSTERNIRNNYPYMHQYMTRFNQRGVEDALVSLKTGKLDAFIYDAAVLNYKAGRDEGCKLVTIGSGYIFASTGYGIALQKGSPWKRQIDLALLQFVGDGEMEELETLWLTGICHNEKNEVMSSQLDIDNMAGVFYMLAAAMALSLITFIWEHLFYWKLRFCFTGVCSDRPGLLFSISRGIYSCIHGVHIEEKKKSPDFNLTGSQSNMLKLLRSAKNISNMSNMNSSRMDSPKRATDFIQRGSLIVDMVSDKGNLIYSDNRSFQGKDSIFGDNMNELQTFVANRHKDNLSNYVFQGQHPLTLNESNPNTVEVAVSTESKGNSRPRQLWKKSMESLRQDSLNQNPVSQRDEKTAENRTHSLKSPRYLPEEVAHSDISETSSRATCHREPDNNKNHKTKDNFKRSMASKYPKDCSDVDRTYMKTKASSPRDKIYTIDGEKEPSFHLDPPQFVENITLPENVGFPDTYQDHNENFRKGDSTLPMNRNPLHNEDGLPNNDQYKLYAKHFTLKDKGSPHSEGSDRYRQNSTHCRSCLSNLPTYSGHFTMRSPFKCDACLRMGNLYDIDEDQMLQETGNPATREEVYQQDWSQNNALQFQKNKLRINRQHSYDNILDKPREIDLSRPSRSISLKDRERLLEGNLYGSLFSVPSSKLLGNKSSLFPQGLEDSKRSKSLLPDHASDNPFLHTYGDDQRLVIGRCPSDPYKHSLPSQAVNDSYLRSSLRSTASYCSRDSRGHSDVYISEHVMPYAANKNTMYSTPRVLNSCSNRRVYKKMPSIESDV
Protocol: as §1, §2, §3, §4

[6] = pH 8.3 (second column so headed), +UV
[7] = pH 6.5, holding potential -30 mV

CC(C(O)c1ccc(O)cc1)N1CCC(Cc2ccccc2)CC1 (centres unmarked) [ifenprodil, Ifenprodil]
ifenprodil Hill slope (nH) [1]: 0.83 ± 0.13
ifenprodil maximal inhibition [1]: 0.76 ± 0.03
ifenprodil Hill slope (nH) [2]: 1.08 ± 0.06
ifenprodil maximal inhibition [2]: 0.99 ± 0.02
ifenprodil Hill slope (nH) [3]: 1.22 ± 0.04 and 1.14 ± 0.11 and 1.11 ± 0.07
ifenprodil maximal inhibition [3]: 0.95 ± 0.02 and 0.93 ± 0.01
ifenprodil Hill slope (nH) ([4]; after UV): 1.25 ± 0.11
ifenprodil maximal inhibition ([4]; after UV): 0.54 ± 0.06
ifenprodil Hill slope (nH) ([4]; before UV): 1.25 ± 0.39
ifenprodil maximal inhibition ([4]; before UV): 0.98 ± 0.09

[1H+] [proton]
pHIC50 (proton sensitivity) ([5]; after UV): 7.01 ± 0.01
proton Hill slope (nH) ([5]; after UV): 1.93 ± 0.07
pHIC50 (proton sensitivity) ([5]; before UV): 7.00 ± 0.02
proton Hill slope (nH) ([5]; before UV): 1.91 ± 0.11
proton, relative current at pH 6.3 ([5]; pH 6.3, +UV): 0.04 ± 0.01
proton, relative current at pH 6.3 ([5]; pH 6.3, -UV): 0.04 ± 0.01
proton, relative current at pH 7.3 ([5]; pH 7.3, +UV): 0.78 ± 0.03
proton, relative current at pH 7.3 ([5]; pH 7.3, -UV): 0.79 ± 0.03
proton, relative current at pH 8.3 [5, 6]: 1.00 ± 0.02
proton, relative current at pH 8.3 ([5]; pH 8.3, +UV): 0.99 ± 0.02
proton, relative current at pH 8.3 ([5]; pH 8.3, -UV): 0.99 ± 0.02
proton, relative current at pH 9.3 ([5]; pH 9.3, -UV): 1.01 ± 0.04
pHIC50 (proton sensitivity) ([4]; after UV): 6.90 ± 0.02
proton Hill slope (nH) ([4]; after UV): 0.99 ± 0.03
pHIC50 (proton sensitivity) ([4]; before UV): 7.60 ± 0.01
proton Hill slope (nH) ([4]; before UV): 1.37 ± 0.05
proton, relative current at pH 6.3 ([4]; pH 6.3, +UV): 0.21 ± 0.09
proton, relative current at pH 6.3 ([4]; pH 6.3, -UV): 0.03 ± 0.02
proton, relative current at pH 7.3 ([4]; pH 7.3, +UV): 0.71 ± 0.02
proton, relative current at pH 7.3 ([4]; pH 7.3, -UV): 0.28 ± 0.04
proton, relative current at pH 8.3 [4, 6]: 0.98 ± 0.01
proton, relative current at pH 8.3 ([4]; pH 8.3 (second column so headed), -UV): 1.00 ± 0.03
proton, relative current at pH 8.3 ([4]; pH 8.3, +UV): 0.97 ± 0.03
proton, relative current at pH 8.3 ([4]; pH 8.3, -UV): 0.90 ± 0.04
rightward shift in the pH dose-response curve ([4]; post-UV vs pre-UV): > 0.5 pH-unit

NCCCNCCCCNCCCN [spermine]
Isper/Io 20 μM ([3]; 20 μM spermine, pH 6.5, -30 mV): 1.74 ± 0.06
Isper/Io 200 μM ([3]; 200 μM spermine, pH 6.5, -30 mV): 6.89 ± 0.52
Isper/Io 1000 μM ([3]; 1000 μM spermine, pH 6.5, -30 mV): 12.55 ± 0.41
spermine maximal potentiation [3, 7]: 11.2 ± 3.3
spermine nH [3, 7]: 1.26 ± 0.09
EC50 ([3]; pH 6.5, holding potential -30 mV, read-out: spermine EC50): 174 ± 64.5 µM
Isper/Io 20 μM ([4]; +UV): 1.24 ± 0.03
Isper/Io 20 μM ([4]; -UV): 2.11 ± 0.15
Isper/Io 200 μM ([4]; +UV): 2.12 ± 0.26
Isper/Io 200 μM ([4]; -UV): 13.65 ± 1.01
Isper/Io 1000 μM ([4]; +UV): 2.49 ± 0.42
Isper/Io 1000 μM ([4]; -UV): 23.05 ± 1.52
spermine maximal potentiation ([4]; after UV): 1.6 ± 0.5
spermine nH ([4]; after UV): 1.14 ± 0.16
EC50 ([4]; after UV): 93 ± 22.8 µM
spermine maximal potentiation ([4]; before UV): 26.1 ± 2.5
spermine nH ([4]; before UV): 1.29 ± 0.22
EC50 ([4]; before UV): 215 ± 63.2 µM
